In patent US6635652B1, “Azaindolizinone derivatives and cerebral function improvers containing the same as the active ingredient” (Zenyaku Kogyo Kabushiki Kaisha, priority 1999, dated 2003):

Legend:
[1] = test system: amnesia of rats induced by scopolamine; test: Effects on scopolamine-induced amnesia (passive avoidance task, oral administration); format: in vivo; settings: Rattus norvegicus, po, 60 min before retention trial, scopolamine hydrobromide 2 mg/kg i.p., passive avoidance latency, male Strague Dawley rats, read-out: Inhibitory rate (%); for inhibition in vivo at 0.01 mg/kg: 0.01 mg/kg p.o.; for inhibition in vivo at 1 mg/kg: 1 mg/kg p.o.
Text: Male rats of the Strague Dawley strain at 8 weeks of age (260±2 g body weight) were used for evaluation through passive avoidance task. The apparatus of passive avoidance task comprises illuminated and dark chambers which are separated from each other by a wall with a door. Floors are constituted by grids made of stainless steel; only the grid in the dark chamber is furnished with wiring for electrification.
Effected on the first and second days of testing was preparative training; each rat was placed in the illuminated chamber and left for 3 minutes to habituate to the apparatus. On the third day of testing, the rats were individually placed in the illuminated chamber and after entering the dark chamber, the door was closed and the floor grid was electrified to deliver electric shock (100 V, 0.4 mA, a period of 0.8 sec). In order to induce amnesia, scopolamine hydrobromide (2 mg/kg) was intraperitoneally injected 20 minutes before the electric shock was delivered. Retention in memory on the electric shock was tested 24 hours later; more specifically, retention in passive avoidance trial was measured in terms of a time interval (latency) from placement of each rat in the illuminated chamber to its entry into the dark chamber. The latency over 300 seconds was recorded as 300 seconds. Respective test compounds were suspended in an aqueous solution of 1% carboxymethyl cellulose and orally administered at a dose of 0.01 or 1 mg/kg 60 minutes before the trial.
Antiamnesic effects of the test compounds were evaluated by inhibitory rate (%) which is calculated by the following formula: [formula]
wherein T stands for latency and SC stands for administration of scopolamine hydrobromide. Experimental results are shown in the following table in which, as to each of the test compounds, only the dose showing higher inhibitory rate was indicated.

rats of the ICR strain = test: Toxicity test on rats in a single dose through oral administration; format: in vivo; settings: oral administration of 2,000 mg/kg, suspended in 1% HPC, observation for 14 days
Description: Used in the test were rats of the ICR strain at 6 weeks of age (27.9±0.4 g body weight). They were allowed to freely take food and water; however, fasting was made for a period of 17 hours before administration of the test compounds and for a period of 4 hours after the administration. The respective test compounds were suspended in 1% of hydroxypropyl cellulose (HPC)and orally administered. Until 6 hours after the administration of the test compounds, observation was made frequently, and after that once a day and totally for 14 days.
Used as the test compounds were Compounds 8 and 10.

| Structure (SMILES) | melting point | inhibition in vivo at 0.01 mg/kg [1] | death after single oral dose (rats of the ICR strain) | inhibition in vivo at 1 mg/kg [1] |
| --- | --- | --- | --- | --- |
| CC1=CC=CN2C1=NC(=O)C2(Cc1ccccc1)Cc1ccccc1 [Compound 8, 3,3-Dibenzyl-8-methylimidazo[1,2-a]pyridin-2(3H)-one] |  | 34.8% | None of them induced death |  |
| CC1=CC2=NC(=O)C(Cc3ccccc3)(Cc3ccccc3)N2C(C)=C1 [Compound 9, 3,3-Dibenzyl-5,7-dimethylimidazo[1,2-a]pyridin-2(3H)-one] | 237 to 238 °C |  |  | 66.4% |
| O=C1N=C2C=CC=CN2C1(Cc1ccc(F)cc1F)Cc1ccc(F)cc1F [Compound 28, 3,3-bis(2,4-Difluorobenzyl)imidazo[1,2-a]pyridin-2(3H)-one] | 269 to 271 °C | 62.7% |  |  |
| O=C1N=C2C(OC3CCCC3)=CC=CN2C1(Cc1ccccc1)Cc1ccccc1 [Compound 11, 3,3-Dibenzyl-8-cyclopentyloxyimidazo[1,2-a]pyridin-2(3H)-one] | 268 to 269 °C |  |  | 48% |
| NC1=CC=CN2C1=NC(=O)C2(Cc1ccccc1)Cc1ccccc1 [Compound 41, 8-Amino-3,3-dibenzylimidazo[1,2-a]pyridin-2(3H)-one] | 283 to 285 °C | 30% |  |  |
| O=C1N=C2C=CC=CN2C1(Cc1cccs1)Cc1cccs1 [Compound 30, 3,3-bis(2-Thienylmethyl)imidazo[1,2-a]pyridin-2(3H)-one] | 289.5 °C (dec.) | 79.5% |  |  |
| CCCCC1(CCCC)C(=O)N=C2C=CC=CN21 [Compound 34, 3,3-Dibutylimidazo[1,2-a]pyridin-2(3H)-one] | 100.5 to 102 °C | 59.6% |  |  |
| O=C1N=C2C=CC=CN2C1(Cc1ccccc1)Cc1ccccc1 [Compound 10, 3,3-Dibenzylimidazo[1,2-a]pyridin-2(3H)-one] |  | 78.7% | None of them induced death |  |

Now from value to compound, other results behind:

| melting point | Structure (SMILES) | inhibition in vivo at 0.01 mg/kg [1] | death after single oral dose (rats of the ICR strain) | inhibition in vivo at 1 mg/kg [1] |
| --- | --- | --- | --- | --- |
| 248 to 251 °C | COc1ccc(CC2(Cc3ccc(OC)cc3)C(=O)N=C3C=CC=CN32)cc1 [Compound 19, 3,3-bis(4-Methoxybenzyl)imidazo[1,2-a]pyridin-2(3H)-one] |  |  | 64.3% |
| > 300 °C | CN(C)c1ccc(CC2(Cc3ccc(N(C)C)cc3)C(=O)N=C3C=CC=CN32)cc1 [Compound 17, 3,3-bis(4-Dimethylaminobenzyl)imidazo[1,2-a]pyridin-2(3H)-one] | 33.1% |  |  |
| 246 to 248 °C | O=C1N=C2C=CC(Cl)=CN2C1(Cc1ccccc1)Cc1ccccc1 [Compound 4, 3,3-Dibenzyl-6-chloroimidazo[1,2-a]pyridin-2(3H)-one] |  |  | 58.5% |
| 274 to 275 °C | COC1=CC=CN2C1=NC(=O)C2(Cc1ccccc1)Cc1ccccc1 [Compound 2, 3,3-Dibenzyl-8-methoxyimidazo[1,2-a]pyridin-2(3H)-one] |  |  | 53% |
| 276.5 to 277.5 °C | O=C1N=C2C=CC=CN2C1(Cc1ccc(O)cc1)Cc1ccc(O)cc1 [Compound 22, 3,3-bis(4-Hydroxybenzyl)imidazo[1,2-a]pyridin-2(3H)-one] | 37.4% |  |  |
| 205 °C (dec.) | O=C1N=C2C=CC=CN2C1(Cc1ccco1)Cc1ccco1 [Compound 32, 3,3-bis(2-Furylmethyl)imidazo[1,2-a]pyridin-2(3H)-one] | 77.4% |  |  |
